US20250263753A1, “BRIDGED CYCLE-BASED INHIBITORS OF DNA-DEPENDENT PROTEIN KINASE AND COMPOSITIONS AND APPLICATION IN GENE EDITING” (Juno Therapeutics, Inc., priority 2023, published 2025)
pIC50: −log10 of the molar value. Read-outs that look alike come from different tables or passages of the source.

How the values were obtained:
DNA-PK = DNA-PK (Homo sapiens (Human), UniProt P78527); assay: DNA-PK biochemical assay (Reaction Biology HotSpot kinase assay, 10 μM ATP)
Method: DNA-PK Biochemical Assay Using Reaction Biology's HotSpot Kinase Assay Protocol:
Reagent: Base Reaction buffer; 20 mM Hepes (pH 7.5), 10 mM MgCl2, 1 mM EGTA, 0.01% Brij35, 0.02 mg/ml BSA, 0.1 mM Na3VO4, 2 mM DTT, 1% DMSO Required cofactors are added individually to each kinase reaction.
Reaction Procedure: 1. Prepare substrate in freshly prepared Reaction Buffer; 2. Deliver any required cofactors to the substrate solution above; 3. Deliver kinase into the substrate solution and gently mix; 4. Deliver compounds in 100% DMSO into the kinase reaction mixture by Acoustic technology (Echo550; nanoliter range), incubate for 20 min at room temperature; 5. Deliver 33P-ATP into the reaction mixture to initiate the reaction; 6. Incubate for 2 hours at room temperature; 7. Detect kinase activity by P81 filter-binding method.

ATM = ATM (Homo sapiens (Human), UniProt Q13315); assay: ATM biochemical assay (Reaction Biology HTRF kinase assay, 10 μM ATP); details: class symbol
Method: Ataxia-Telangiectasia Mutated (ATM) Biochemical Assay Using Reaction Biology's HTRF Kinase Assay Protocol:
The assay detects kinase activity by antibody based HTRF assay. The GST-tagged p53 protein serves as substrate and Eu-labeled-antibody with specific phosphorylation site binds upon phosphorylation which is monitored by HTRF from the anti-GST-d2.
Reagent: Reaction buffer; 50 mM Hepes (pH 7.5), 150 mM NaCl, 10 mM MnCl2, 1% Glycerol, 0.01% Brij35, 1 mM DTT, 1% DMSO.
Substrate: Human p53 (aa2-393), RBC produced in E. coli, N-terminal GST-Tag, MW=70.42 kDa.
Detection; MAb Anti-p53-pS15-Eu cryptate, CisBio cat #61P08KAZ; MAb Anti GST-d2
Reaction Procedure: 1. Deliver 2× Enzyme in wells of reaction plate except No E control wells. Add buffer instead; 2. Deliver compounds in 100% DMSO into the kinase reaction mixture by Acoustic technology (Echo550; nanoliter range), incubate for 30 min at room temperature; 3. Deliver 2× substrate+ATP mixture into the reaction mixture to initiate the reaction; 4. Incubate for 2 hours at room temperature.
HTRF Detection: 1. Deliver 2× Stop/Detection mixture and incubate for 2 hours to overnight in the dark. 2. HTRF measurement (Ex/Em1/Em2=320/615/665 nm) in EnVision.

[1] = target: PI3Kδ (His-PIK3CD/PIK3R1, p110 delta/p85 alpha) (Homo sapiens (Human), UniProt O00329); assay: PI3Kδ biochemical assay (HTRF/FRET probe); type: binding; details: class symbol
PI3Kδ (His-PIK3CD/PIK3R1, p110 delta/p85 alpha), sequence (O00329 whole entry, species assumed): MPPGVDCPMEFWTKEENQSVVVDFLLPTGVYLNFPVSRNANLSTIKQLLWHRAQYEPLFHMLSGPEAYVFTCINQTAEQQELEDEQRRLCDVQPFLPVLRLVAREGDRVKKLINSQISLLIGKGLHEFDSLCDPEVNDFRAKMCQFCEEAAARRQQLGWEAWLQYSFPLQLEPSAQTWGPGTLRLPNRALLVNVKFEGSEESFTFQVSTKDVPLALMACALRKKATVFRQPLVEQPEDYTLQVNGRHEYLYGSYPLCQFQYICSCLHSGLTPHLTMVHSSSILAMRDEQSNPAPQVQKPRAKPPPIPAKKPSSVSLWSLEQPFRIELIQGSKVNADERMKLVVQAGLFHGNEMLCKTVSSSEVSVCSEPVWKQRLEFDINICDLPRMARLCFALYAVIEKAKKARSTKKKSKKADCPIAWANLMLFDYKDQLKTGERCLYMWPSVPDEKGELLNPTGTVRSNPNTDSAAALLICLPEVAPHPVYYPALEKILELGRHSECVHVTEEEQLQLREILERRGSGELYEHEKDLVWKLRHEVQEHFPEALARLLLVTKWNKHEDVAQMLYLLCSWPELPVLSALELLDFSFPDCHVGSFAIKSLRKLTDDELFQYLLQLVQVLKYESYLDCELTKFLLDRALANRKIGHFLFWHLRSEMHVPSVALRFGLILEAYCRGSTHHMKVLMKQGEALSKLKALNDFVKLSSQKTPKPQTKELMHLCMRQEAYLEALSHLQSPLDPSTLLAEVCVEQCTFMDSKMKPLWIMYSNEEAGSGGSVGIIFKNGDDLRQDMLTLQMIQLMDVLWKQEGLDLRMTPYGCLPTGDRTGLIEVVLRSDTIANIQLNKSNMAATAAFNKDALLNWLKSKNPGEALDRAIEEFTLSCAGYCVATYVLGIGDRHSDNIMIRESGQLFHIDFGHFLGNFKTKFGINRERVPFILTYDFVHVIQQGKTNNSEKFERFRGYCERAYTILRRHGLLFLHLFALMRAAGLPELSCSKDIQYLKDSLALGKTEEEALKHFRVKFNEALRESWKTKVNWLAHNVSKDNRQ
PI3Kδ (His-PIK3CD/PIK3R1, p110 delta/p85 alpha), sequence (P27986 whole entry partner, species assumed): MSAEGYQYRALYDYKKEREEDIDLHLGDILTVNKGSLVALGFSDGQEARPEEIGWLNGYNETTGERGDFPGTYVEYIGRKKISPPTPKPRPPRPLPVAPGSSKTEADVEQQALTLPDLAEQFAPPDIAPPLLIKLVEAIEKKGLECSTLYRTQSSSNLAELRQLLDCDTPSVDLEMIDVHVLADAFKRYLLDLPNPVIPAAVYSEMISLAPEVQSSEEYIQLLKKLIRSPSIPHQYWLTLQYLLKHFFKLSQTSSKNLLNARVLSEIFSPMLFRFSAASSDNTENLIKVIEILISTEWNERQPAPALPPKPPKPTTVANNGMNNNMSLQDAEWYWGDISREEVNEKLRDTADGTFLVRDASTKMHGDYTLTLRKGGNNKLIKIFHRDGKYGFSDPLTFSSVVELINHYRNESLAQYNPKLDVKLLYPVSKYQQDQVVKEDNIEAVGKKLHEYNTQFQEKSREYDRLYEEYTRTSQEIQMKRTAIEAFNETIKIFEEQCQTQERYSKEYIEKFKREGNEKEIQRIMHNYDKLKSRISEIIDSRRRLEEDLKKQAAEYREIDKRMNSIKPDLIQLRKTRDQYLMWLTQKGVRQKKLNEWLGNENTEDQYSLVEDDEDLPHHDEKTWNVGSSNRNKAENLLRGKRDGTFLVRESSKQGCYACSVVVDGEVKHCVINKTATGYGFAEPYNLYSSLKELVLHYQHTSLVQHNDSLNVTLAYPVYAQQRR
Method: Phosphoinositide 3-kinase (PI3K) Biochemical Assay: A solution was prepared containing 0.2 nM Anti-HIS-Terbium (Cisbio, 64CUSTAZU), 40 nM designed-probe and 1.0 nM His-PIK3CD/PIK3R1 (p110 delta/p85 alpha) in FRET Buffer (20 mM HEPES, 10 mM MgCl2, 0.015% Brij-35, 4 mM DTT, 0.05 mg/mL BSA).

[2] = target: PI3Kα (His-PIK3CA/PIK3R1, p110 alpha/p85 alpha) (Homo sapiens (Human), UniProt P42336); assay: PI3Kα biochemical assay (HTRF/FRET probe); type: binding; details: class symbol
PI3Kα (His-PIK3CA/PIK3R1, p110 alpha/p85 alpha), sequence (P42336 whole entry, species assumed): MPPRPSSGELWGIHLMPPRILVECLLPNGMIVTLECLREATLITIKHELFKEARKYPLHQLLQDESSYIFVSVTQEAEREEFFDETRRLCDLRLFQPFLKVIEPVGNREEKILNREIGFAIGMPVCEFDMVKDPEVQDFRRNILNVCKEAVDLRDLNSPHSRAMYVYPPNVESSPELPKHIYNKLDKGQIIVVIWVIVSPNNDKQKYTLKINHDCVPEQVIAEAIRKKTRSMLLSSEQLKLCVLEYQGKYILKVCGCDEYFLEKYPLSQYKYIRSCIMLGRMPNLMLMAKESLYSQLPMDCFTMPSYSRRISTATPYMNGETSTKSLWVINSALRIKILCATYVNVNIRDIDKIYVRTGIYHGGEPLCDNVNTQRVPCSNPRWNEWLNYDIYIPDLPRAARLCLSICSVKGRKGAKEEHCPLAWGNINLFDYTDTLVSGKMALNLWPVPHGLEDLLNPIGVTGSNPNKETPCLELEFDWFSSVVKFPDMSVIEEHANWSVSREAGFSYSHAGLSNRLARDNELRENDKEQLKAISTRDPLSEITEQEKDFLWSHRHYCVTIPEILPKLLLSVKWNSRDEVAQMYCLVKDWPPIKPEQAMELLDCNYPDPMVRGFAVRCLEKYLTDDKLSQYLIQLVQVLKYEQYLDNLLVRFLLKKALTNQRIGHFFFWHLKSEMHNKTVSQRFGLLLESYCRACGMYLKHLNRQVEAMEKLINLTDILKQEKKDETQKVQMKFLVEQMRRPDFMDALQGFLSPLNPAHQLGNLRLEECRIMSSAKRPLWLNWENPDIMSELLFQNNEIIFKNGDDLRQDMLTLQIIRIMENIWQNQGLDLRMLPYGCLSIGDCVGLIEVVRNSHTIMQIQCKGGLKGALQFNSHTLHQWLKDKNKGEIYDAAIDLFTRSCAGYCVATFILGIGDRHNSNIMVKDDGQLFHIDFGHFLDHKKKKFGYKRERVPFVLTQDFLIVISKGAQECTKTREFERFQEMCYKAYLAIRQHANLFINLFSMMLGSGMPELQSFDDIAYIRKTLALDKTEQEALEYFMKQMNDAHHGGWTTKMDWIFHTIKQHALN
PI3Kα (His-PIK3CA/PIK3R1, p110 alpha/p85 alpha), sequence (P27986 whole entry partner, species assumed): as the sequence (P27986 whole entry partner, species assumed) above
Method: Phosphoinositide 3-kinase α (PI3Kα) Biochemical Assay: A solution was prepared containing 0.2 nM Anti-HIS-Terbium (Cisbio, 64CUSTAZU), 3.7 nM designed-probe and 1.0 nM His-PIK3CA/PIK3R1 (p110 alpha/p85 alpha) in FRET Buffer (20 mM HEPES, 10 mM MgCl2, 0.015% Brij-35, 4 mM DTT, 0.05 mg/mL BSA).

[3] = read-out: DNA-PK HotSpot 10 μM ATP IC50, class symbol

| Structure (SMILES) | pIC50 (DNA-PK; [3]) | pIC50 (ATM) | pIC50 [1] | pIC50 [2] | pIC50 (DNA-PK; class symbol) |
| --- | --- | --- | --- | --- | --- |
| Cc1cc2nsnc2cc1Nc1ncc2c(n1)n(C13CCC(O)(CC1)C3)c(=O)n2C [Compound 3, 9-(4-hydroxybicyclo[2.2.1]heptan-1-yl)-7-methyl-2-((6-methylbenzo[c][1,2,5]thiadiazol-5-yl)amino)-7,9-dihydro-8H-purin-8-one] | > 9.00 | 8.00 to 9.00 | ≤ 6.00 | 7.00 to 8.00 |  |
| Cc1cc2nccnc2cc1Nc1ncc2c(n1)n(C13CCC(O)(CC1)C3)c(=O)n2C [Compound 4, 9-(4-hydroxybicyclo[2.2.1]heptan-1-yl)-7-methyl-2-((7-methylquinoxalin-6-yl)amino)-7,9-dihydro-8H-purin-8-one] | > 9.00 | 7.00 to 8.00 | 6.00 to 7.00 | 6.00 to 7.00 |  |
| Cc1cc2c(cc1Nc1ncc3c(n1)n(C14CCC(O)(CC1)C4)c(=O)n3C)OCCO2 [Compound 5, 9-(4-hydroxybicyclo[2.2.1]heptan-1-yl)-7-methyl-2-((7-methyl-2,3-dihydrobenzo[b][1,4]dioxin-6-yl)amino)-7,9-dihydro-8H-purin-8-one] | > 9.00 | 7.00 to 8.00 | ≤ 6.00 | 6.00 to 7.00 |  |
| COC12CCC(n3c(=O)n(C)c4cnc(Nc5cc6nsnc6cc5C)nc43)(CC1)C2 [Compound 8, 9-(4-methoxybicyclo[2.2.1]heptan-1-yl)-7-methyl-2-((6-methylbenzo[c][1,2,5]thiadiazol-5-yl)amino)-7,9-dihydro-8H-purin-8-one] | > 9.00 | 7.00 to 8.00 | 6.00 to 7.00 | 7.00 to 8.00 |  |
| COC12CCC(n3c(=O)n(C)c4cnc(Nc5cc6nccnc6cc5C)nc43)(CC1)C2 [Compound 9, 9-(4-methoxybicyclo[2.2.1]heptan-1-yl)-7-methyl-2-((7-methylquinoxalin-6-yl)amino)-7,9-dihydro-8H-purin-8-one] | > 9.00 | 7.00 to 8.00 | 6.00 to 7.00 | 7.00 to 8.00 |  |
| COC12CCC(n3c(=O)n(C)c4cnc(Nc5cc6c(cc5C)OCCO6)nc43)(CC1)C2 [Compound 10, 9-(4-methoxybicyclo[2.2.1]heptan-1-yl)-7-methyl-2-((7-methyl-2,3-dihydrobenzo[b][1,4]dioxin-6-yl)amino)-7,9-dihydro-8H-purin-8-one] | > 9.00 | 6.00 to 7.00 | ≤ 6.00 | 7.00 to 8.00 |  |
| Cc1cc2nsnc2cc1Nc1ncc2c(n1)n(C13CC(F)(C1)C3)c(=O)n2C [Compound 14, 9-(3-fluorobicyclo[1.1.1]pentan-1-yl)-7-methyl-2-((6-methylbenzo[c][1,2,5]thiadiazol-5-yl)amino)-7,9-dihydro-8H-purin-8-one] | > 9.00 | 6.00 to 7.00 | ≤ 6.00 | 6.00 to 7.00 |  |
| Cc1cc2nccnc2cc1Nc1ncc2c(n1)n(C13CC(F)(C1)C3)c(=O)n2C [Compound 15, 9-(3-fluorobicyclo[1.1.1]pentan-1-yl)-7-methyl-2-((7-methylquinoxalin-6-yl)amino)-7,9-dihydro-8H-purin-8-one] |  | 6.00 to 7.00 | ≤ 6.00 | 6.00 to 7.00 | 8.00 to 9.00 |
| Cc1cc2c(cc1Nc1ncc3c(n1)n(C14CC(F)(C1)C4)c(=O)n3C)OCCO2 [Compound 16, 9-(3-fluorobicyclo[1.1.1]pentan-1-yl)-7-methyl-2-((7-methyl-2,3-dihydrobenzo[b][1,4]dioxin-6-yl)amino)-7,9-dihydro-8H-purin-8-one] |  | 6.00 to 7.00 | ≤ 6.00 | ≤ 6.00 | 7.00 to 8.00 |
